Values after ≈ are worked out from the molar mass of the structure shown.
Assays:
[1] = tested on: Trichophyton mentagr.; experiment: Antimycotic in-vitro activity, serial dilution test (MIC); format: cell-based, Trichophyton mentagrophytes; settings: Sabouraud medium, 20°C, 96 hours, inoculum 5 x 10^4 germs/ml; for MIC: Trichophyton, read-out: MHK-Werte in γ/ml Nährmedium, Trichophyton mentagr.
Experimental: (§1) Die in-vitro-Prüfungen wurden im Reihenverdünnungstest mit Keiminokula von durchschnittlich 5 x 10^4 Keimen/ml Substrat durchgeführt. Als Nährmedium dienten • a) für Dermatophyten und Schimmelpilze: Sabourand's milieu d'epreuve • b) für Hefen: Fleischextrakt-Traubenzucker-Bouillon.
(§2) Die Bebrütungstemperatur betrug 20°C, die Bebrütungsdauer lag bei 24 bis 96 Stunden bei Hefen und 96 Stunden bei Dermatophyten und Schimmelpilzen.

[2] = tested on: Candida albicans; experiment: as above; format: cell-based; settings: meat extract-glucose broth, 20°C, 24 to 96 hours, inoculum 5 x 10^4 germs/ml; for MIC: Candida albicans, read-out: MHK-Werte in γ/ml Nährmedium, Candida albicans
Experimental: as §1, §2

[3] = tested on: Microsporum canis; experiment: as above; format: cell-based; settings: Sabouraud medium, 20°C, inoculum 5 x 10^4 germs/ml; for MHK-Werte in γ/ml Nährmedium, Microsporum canis: 96 hours; for MIC: Microsporum canis, 96 h, read-out: MHK-Werte in γ/ml Nährmedium, Microsporum canis
Experimental: as §1, §2

[4] = tested on: Torulopsis glabrata; experiment: as above; format: cell-based; settings: meat extract-glucose broth, 20°C, 24 to 96 hours, inoculum 5 x 10^4 germs/ml; for MIC: Nakaseomyces glabratus, read-out: MHK-Werte in γ/ml Nährmedium, Torulopsis glabrata
Experimental: as §1, §2

[5] = tested on: Aspergillus fumig.; experiment: as above; format: cell-based, Aspergillus fumigatus; settings: Sabouraud medium, 20°C, inoculum 5 x 10^4 germs/ml; for MIC: Aspergillus, 96 h, read-out: MHK-Werte in γ/ml Nährmedium, Aspergillus fumig.
Experimental: as §1, §2

[6] = tested on: Dermatophyten und Schimmelpilze, Hefen; experiment: Antimycotic in-vitro activity, serial dilution test, overall comparison with known compounds; format: cell-based; settings: compared with known compounds (A),(B),(C) and (D)
Experimental: as §1, §2

[7] = tested on: Candida-Zellen; experiment: Antimycotic in-vivo activity (oral) in mouse candidosis; design: species or system Mäuse vom Typ SPF-CF1; key: +++++: sehr gute Wirkung = 90 % Ueberlebende am 6.Tag p.i.; ++++: gute Wirkung = 80 % Ueberlebende am 6.Tag p.i.; +++: Wirkung = 60 % Ueberlebende am 6.Tag p.i.; ++: schwache Wirkung = 40 % Ueberlebende am 6.Tag p.i.; +: Spur Wirkung; k.W.: keine Wirkung
Experimental: Mäuse vom Typ SPF-CF1 wurden intravenös mit 1 - 2 x 10^6 logarithmisch wachsenden Candida-Zellen, die in physiologischer Kochsalzlösung suspendiert werden, infiziert. Eine Stunde vor und sieben Stunden nach der Infektion werden die Tiere mit jeweils 50 - 100 mg/kg Körpergewicht der Präparate oral behandelt.
Uhbehandelte Tiere starben 3 bis 6 Tage post infektionem. Die Ueberlebensrate am 6.Tag post infektionem betrug bei uhbehandelten Kontrolltieren etwa 5 %.
• +++++ = sehr gute Wirkung = 90 % Ueberlebende am 6.Tag p.i. • ++++ = gute Wirkung = 80 % Ueberlebende am 6.Tag p.i. • +++ = Wirkung = 60 % Ueberlebende am 6.Tag p.i. • ++ = schwache Wirkung = 40 % Ueberlebende am 6.Tag p.i. • + = Spur Wirkung = k.W. = keine Wirkung

[8] = mice infected i.v. with 1 - 2 x 10^6 Candida cells, oral 50 - 100 mg/kg one hour before and seven hours after infection, survivors on day 6 p.i.
[9] = mouse candidosis, oral, compared with known compounds (A), (B), (C) and (D)

MIC [1] [µg/mL]	MIC [2] [µg/mL]	MIC [3] [µg/mL]	MIC [4] [µg/mL]	MIC [5] [µg/mL]	Compound	MHK-Werte in γ/ml Nährmedium, Trichophyton mentagr. [1] [µg/mL]	MHK-Werte in γ/ml Nährmedium, Candida albicans [2] [µg/mL]	MHK-Werte in γ/ml Nährmedium, Microsporum canis [3] [µg/mL]	MHK-Werte in γ/ml Nährmedium, Torulopsis glabrata [4] [µg/mL]	MHK-Werte in γ/ml Nährmedium, Aspergillus fumig. ([5]; 96 hours) [µg/mL]	antimykotische Wirkung [6]	Wirkung [7, 8]	Wirkung [7, 9]
< 1	8 (≈ 20.8 µM)	8 (≈ 20.8 µM)	64 (≈ 167 µM)	32 (≈ 83.4 µM)	CCCC=CC(C(O)c1ccc(Oc2ccc(Cl)cc2)cc1)n1cncn1 (centres unmarked) [Beispiel 38]	–	–	–	–	–	bessere antimykotische Wirkung	–	–
< 1	4 (≈ 9.66 µM)	32 (≈ 77.3 µM)	16 (≈ 38.7 µM)	64 (≈ 155 µM)	CCCCCCCC(C(O)c1ccc(Oc2ccc(Cl)cc2)cc1)n1cncn1 (centres unmarked) [Beispiel 36]	–	–	–	–	–	bessere antimykotische Wirkung	–	–
< 1	< 1	8 (≈ 22.4 µM)	< 1	64 (≈ 179 µM)	CCCC(C(O)c1ccc(Oc2ccc(Cl)cc2)cc1)n1ccnc1 (centres unmarked) [Beispiel 74]	–	–	–	–	–	bessere antimykotische Wirkung	–	–
< 1	< 1	8 (≈ 21.6 µM)	2 (≈ 5.39 µM)	32 (≈ 86.3 µM)	CCCCC(C(O)c1ccc(Oc2ccc(Cl)cc2)cc1)n1ccnc1 (centres unmarked) [Beispiel 72]	–	–	–	–	–	bessere antimykotische Wirkung	–	–
< 1	< 1	–	–	64 (≈ 172 µM)	CCCCC(C(O)c1ccc(Oc2ccc(Cl)cc2)cc1)n1cncn1 (single isomer, unassigned) [Beispiel 33]	–	–	8	<1	–	bessere antimykotische Wirkung	+++++ (sehr gute Wirkung = 90 % Ueberlebende am 6.Tag p.i.)	bessere Wirkung
< 1	< 1	8 (≈ 20.4 µM)	< 1	> 64	CCCC(C(O)c1ccc(Oc2ccc(Cl)cc2Cl)cc1)n1cncn1 (centres unmarked) [Beispiel 40]	–	–	–	–	–	bessere antimykotische Wirkung	–	–
4 (≈ 10.8 µM)	< 1	4 (≈ 10.8 µM)	2 (≈ 5.41 µM)	32 (≈ 86.5 µM)	CC=CCC(C(O)c1ccc(Oc2ccc(Cl)cc2)cc1)n1cncn1 (centres unmarked) [Beispiel 37]	–	–	–	–	–	bessere antimykotische Wirkung	–	–
< 1	< 1	32 (≈ 93.1 µM)	> 64	> 64	CC(n1cncn1)C(C)(O)c1ccc(Oc2ccc(Cl)cc2)cc1 (centres unmarked) [Beispiel 44]	–	–	–	–	–	bessere antimykotische Wirkung	–	–
2 (≈ 5.83 µM)	< 1	8 (≈ 23.3 µM)	< 1	16 (≈ 46.7 µM)	CCC(C(O)c1ccc(Oc2ccc(Cl)cc2)cc1)n1ccnc1 (centres unmarked) [Beispiel 70]	–	–	–	–	–	bessere antimykotische Wirkung	+	bessere Wirkung
4 (≈ 11.7 µM)	16 (≈ 46.8 µM)	2 (≈ 5.85 µM)	64 (≈ 187 µM)	32 (≈ 93.6 µM)	CCC(C(=O)c1ccc(Oc2ccc(Cl)cc2)cc1)n1cncn1 (centres unmarked) [Beispiel 7]	–	–	–	–	–	bessere antimykotische Wirkung	–	–
< 1	< 1	4 (≈ 12.7 µM)	16 (≈ 50.7 µM)	16 (≈ 50.7 µM)	OC(Cn1cncn1)c1ccc(Oc2ccc(Cl)cc2)cc1 (centres unmarked) [Beispiel 49]	–	–	–	–	–	bessere antimykotische Wirkung	–	–
4 (≈ 10.7 µM)	< 1	16 (≈ 42.8 µM)	4 (≈ 10.7 µM)	16 (≈ 42.8 µM)	COCCC(C(O)c1ccc(Oc2ccc(Cl)cc2)cc1)n1cncn1 (centres unmarked) [Beispiel 39]	–	–	–	–	–	bessere antimykotische Wirkung	–	–

The remaining lines, values behind:

Compound	MIC [1] [µg/mL]	MIC [2] [µg/mL]	MIC [3] [µg/mL]	MIC [4] [µg/mL]	MIC [5] [µg/mL]	MHK-Werte in γ/ml Nährmedium, Trichophyton mentagr. [1] [µg/mL]	MHK-Werte in γ/ml Nährmedium, Candida albicans [2] [µg/mL]	MHK-Werte in γ/ml Nährmedium, Microsporum canis [3] [µg/mL]	MHK-Werte in γ/ml Nährmedium, Torulopsis glabrata [4] [µg/mL]	MHK-Werte in γ/ml Nährmedium, Aspergillus fumig. ([5]; 96 hours) [µg/mL]	antimykotische Wirkung [6]	Wirkung [7, 8]	Wirkung [7, 9]
CCCCC(C(O)c1ccc(Oc2ccc(Cl)cc2)cc1)n1cncn1 (single isomer, unassigned) [Beispiel 34]	–	–	–	–	–	<1	<1	32	>64	32	bessere antimykotische Wirkung	–	–
CC(C)C(C(=O)c1ccc(Oc2ccc(Cl)cc2)cc1)n1ccnc1 (centres unmarked) [Beispiel 28]	< 1	< 1	2 (≈ 5.64 µM)	2 (≈ 5.64 µM)	< 1	–	–	–	–	–	bessere antimykotische Wirkung	–	–
CCCC(C(O)c1ccc(Oc2ccccc2)cc1)n1ccnc1 (centres unmarked) [Beispiel 68]	4 (≈ 12.4 µM)	< 1	16 (≈ 49.6 µM)	32 (≈ 99.3 µM)	32 (≈ 99.3 µM)	–	–	–	–	–	bessere antimykotische Wirkung	–	–
CC(C)C(C(O)c1ccc(Oc2ccc(Cl)cc2)cc1)n1ccnc1 (centres unmarked) [Beispiel 73]	4 (≈ 11.2 µM)	4 (≈ 11.2 µM)	16 (≈ 44.8 µM)	2 (≈ 5.6 µM)	64 (≈ 179 µM)	–	–	–	–	–	bessere antimykotische Wirkung	–	–
OC(Cn1cncn1)c1ccc(Oc2ccc(Cl)cc2Cl)cc1 (centres unmarked) [Beispiel 48]	< 1	< 1	4 (≈ 11.4 µM)	2 (≈ 5.71 µM)	16 (≈ 45.7 µM)	–	–	–	–	–	bessere antimykotische Wirkung	–	–
CC(C)C(C(=O)c1ccc(Oc2ccc(Cl)cc2)cc1)n1cncn1 (centres unmarked) [Beispiel 13]	4 (≈ 11.2 µM)	64 (≈ 180 µM)	8 (≈ 22.5 µM)	–	8 (≈ 22.5 µM)	–	–	–	–	–	bessere antimykotische Wirkung	–	–
CC(C(=O)c1ccc(Oc2ccc(Cl)cc2)cc1)n1ccnc1 (centres unmarked) [Beispiel 26]	8 (≈ 24.5 µM)	4 (≈ 12.2 µM)	–	16 (≈ 49 µM)	16 (≈ 49 µM)	–	–	–	–	–	bessere antimykotische Wirkung	+	bessere Wirkung
CC(C(=O)c1ccccc1)n1cncn1 (centres unmarked) [(A), reference compound]	> 64	> 64	–	–	–	–	–	–	–	–	–	k.W.	–
CC(C(O)c1ccc(Cl)cc1)n1cncn1 (centres unmarked) [(C), reference compound]	> 64	> 64	–	–	–	–	–	–	–	–	–	k.W.	–
OC(Cn1cncn1)c1ccc(-c2ccc(Cl)cc2)cc1 (centres unmarked) [(D), reference compound]	4 (≈ 13.3 µM)	> 64	> 64	–	> 64	–	–	–	–	–	–	k.W.	–
CC(C(=O)c1ccc(Oc2ccc(Cl)cc2)cc1)n1cncn1 (centres unmarked) [Beispiel 9]	2 (≈ 6.1 µM)	8 (≈ 24.4 µM)	4 (≈ 12.2 µM)	16 (≈ 48.8 µM)	8 (≈ 24.4 µM)	–	–	–	–	–	bessere antimykotische Wirkung	+++ (Wirkung = 60 % Ueberlebende am 6.Tag p.i.)	bessere Wirkung
CC(C(O)c1ccc(Oc2ccc(Cl)cc2)cc1)n1ccnc1 (centres unmarked) [Beispiel 71]	8 (≈ 24.3 µM)	< 1	–	2 (≈ 6.08 µM)	16 (≈ 48.7 µM)	–	–	–	–	–	bessere antimykotische Wirkung	+++ (Wirkung = 60 % Ueberlebende am 6.Tag p.i.)	bessere Wirkung
O=C(Cn1cncn1)c1ccc(-c2ccccc2)cc1 [(B), reference compound]	4 (≈ 15.2 µM)	> 64	> 64	–	> 64	–	–	–	–	–	–	k.W.	–
CCCCC(C(=O)c1ccc(Oc2ccc(Cl)cc2)cc1)n1ccnc1 (centres unmarked) [Beispiel 27]	< 1	< 1	< 1	< 1	< 1	–	–	–	–	–	bessere antimykotische Wirkung	–	–
CC(C(O)c1ccc(Oc2ccc(Cl)cc2Cl)cc1)n1cncn1 (centres unmarked) [Beispiel 41]	4 (≈ 11 µM)	< 1	16 (≈ 43.9 µM)	8 (≈ 22 µM)	32 (≈ 87.9 µM)	–	–	–	–	–	bessere antimykotische Wirkung	–	–
CCCC(C(=O)c1ccc(Oc2ccc(Cl)cc2)cc1)n1ccnc1 (centres unmarked) [Beispiel 25]	< 1	< 1	8 (≈ 22.5 µM)	< 1	< 1	–	–	–	–	–	bessere antimykotische Wirkung	–	–

Source: EP0084597A1, “Triazole and imidazole derivatives and pharmaceutical preparations containing them” (BAYER AG, priority 1981, dated 1983)
